ChEMBL document CHEMBL1123061, “Potentiation of fasciolicidal agents by benzoyl side chains. Synthesis of benzoylsalicylanilides” (1985)

test system: Fasciola hepatica; assay: In vivo for fasciolicidal activity against Fasciola hepatica infections in rats following s.c. administration.

**Q.** For Cc1cc(Oc2ccccc2)cc(C(=O)Nc2ccc(Cl)cc2Cl)c1O, which Dose is on record?
**A.** The Dose was 100 mg/kg.

**Q.** Cc1cc(C(=O)c2ccc(Cl)cc2)cc(C(=O)Nc2ccc([N+](=O)[O-])cc2Cl)c1O was tested. Which Dose did it give?
**A.** The Dose was 6.3 mg/kg.

**Q.** Which Dose does the source give for Cc1cc(C(=O)c2ccc(C#N)cc2)cc(C(=O)Nc2ccc([N+](=O)[O-])cc2Cl)c1O here?
**A.** The Dose was 6.3 mg/kg.

**Q.** Cc1c(C(=O)c2ccc(Cl)cc2)cc(C(C)(C)C)c(O)c1C(=O)Nc1ccc([N+](=O)[O-])cc1Cl was tested. Which Dose did it give?
**A.** The Dose was 1.6 mg/kg.

**Q.** For Cc1cc(C(=O)c2ccc(Cl)cc2)cc(C(=O)Nc2ccc(C#N)cc2)c1O, which Dose is on record?
**A.** Its Dose is 100 mg/kg.

**Q.** Which Dose does the source give for Cc1cc(C(=O)c2ccc(Br)cc2)cc(C(=O)Nc2ccc(Cl)cc2Cl)c1O here?
**A.** The Dose was 100 mg/kg.

**Q.** How did the Dose turn out when Cc1cc(C(=O)c2ccc(Cl)cc2)c(C)c(C(=O)Nc2ccc([N+](=O)[O-])cc2Cl)c1O was run?
**A.** Its Dose is 3.1 mg/kg.

**Q.** For Cc1cc(C(=O)c2ccc([N+](=O)[O-])cc2)cc(C(=O)Nc2ccc(Cl)cc2Cl)c1O, which Dose is on record?
**A.** The Dose was 12.5 mg/kg.

**Q.** Which Dose does the source give for Cc1cc(C(=O)c2ccc(Cl)cc2)cc(C(=O)Nc2ccc([N+](=O)[O-])cc2Br)c1O here?
**A.** Its Dose is 3.1 mg/kg.

**Q.** O=C(c1ccc(Cl)cc1)c1ccc(O)c(C(=O)Nc2ccc([N+](=O)[O-])cc2Cl)c1 was tested. Which Dose did it give?
**A.** The Dose was 25 mg/kg.

**Q.** With Cc1cc(C(=O)c2ccc(Cl)c(Cl)c2)cc(C(=O)Nc2ccc([N+](=O)[O-])cc2Cl)c1O as the compound, how does the Dose read?
**A.** Its Dose is 3.1 mg/kg.

**Q.** For Cc1cc(C(=O)c2ccc(Cl)cc2)cc(C(=O)Nc2ccc(Cl)c(Cl)c2)c1O, which Dose is on record?
**A.** The Dose was 100 mg/kg.

**Q.** For Cc1cc(Cc2ccccc2)cc(C(=O)Nc2ccc(Cl)cc2Cl)c1O, which Dose is on record?
**A.** The Dose was 100 mg/kg.

**Q.** How did the Dose turn out when Cc1cc(C(=O)c2ccc(Cl)cc2)cc(C(=O)Nc2ccc(Br)cc2C(F)(F)F)c1O was run?
**A.** Its Dose is 6.3 mg/kg.

**Q.** Cc1cc(C(=O)c2ccc(Cl)cc2Cl)cc(C(=O)Nc2ccc([N+](=O)[O-])cc2Cl)c1O was tested. Which Dose did it give?
**A.** Its Dose is 6.3 mg/kg.

**Q.** How did the Dose turn out when Cc1cc(C(=O)c2ccc(Cl)cc2)cc(C(=O)Nc2ccc([N+](=O)[O-])cc2C(F)(F)F)c1O was run?
**A.** The Dose was 6.3 mg/kg.

**Q.** Which Dose does the source give for O=C(Nc1ccc(Oc2ccc(Cl)cc2)c(Cl)c1)c1cc(I)cc(I)c1O [RAFOXANIDE] here?
**A.** The Dose was 12.5 mg/kg.

**Q.** With Cc1cc(C(=O)c2ccc(I)cc2)cc(C(=O)Nc2ccc([N+](=O)[O-])cc2Cl)c1O as the compound, how does the Dose read?
**A.** The Dose was 12.5 mg/kg.

**Q.** Cc1cc(C(=O)c2ccc(Br)cc2)cc(C(=O)Nc2ccc([N+](=O)[O-])cc2Cl)c1O was tested. Which Dose did it give?
**A.** The Dose was 3.1 mg/kg.

**Q.** With Cc1cc(C(=O)c2ccc([N+](=O)[O-])cc2)cc(C(=O)Nc2ccc([N+](=O)[O-])cc2Cl)c1O as the compound, how does the Dose read?
**A.** The Dose was 6.3 mg/kg.

**Q.** With Cc1cc(C(=O)c2ccc(Cl)cc2)cc(C(=O)Nc2cc(Cl)cc(Cl)c2)c1O as the compound, how does the Dose read?
**A.** The Dose was 100 mg/kg.
